{"source": "patent US20020049299A1", "about": "“Synthetic soil-extract materials and medicaments for hemorrhagic fever viruses based thereon” (priority 1997, published 2002)", "type_in_all_cases": "cell-based", "key": {"[1]": {"tested_on": "Punta Toro A hemorrhagic fever virus type Adames", "test": "Punta Toro A virus cytoprotection, inhibition of CPE", "conditions": "LLC-MK2, read-out: CPE EC50"}, "[2]": {"tested_on": "Pichinde hemorrhagic fever virus 4763", "test": "microbe, parasite or virus in culture", "conditions": "BSC-1, read-out: CPE EC50"}, "[3]": {"tested_on": "Pichinde hemorrhagic fever virus 4763"}, "[4]": {"tested_on": "Punta Toro A hemorrhagic fever virus type Adames", "test": "Punta Toro A virus time-of-addition cytoprotection, CPE method"}, "[5]": {"tested_on": "Punta Toro A hemorrhagic fever virus type Adames", "test": "Punta Toro A virus time-of-addition cytoprotection, NR method", "experimental": "(§1) The second cytoprotection assay protocol, employed to validate the CPE results, was as follows: in the neutral red dye uptake version of the antiviral test protocol described immediately above, the same 96-well microplates were utilized after the CPE had been read. Neutral red dye was then added to the medium: cells not damaged by virus take up a greater amount of dye, which can be read on a computerized micro plate autoreader (the method is described in detail by McManus: Appl. Environ. Microbiol. 1976, 31, 35-38).\n(§2) Punta Toro A hemorrhagic fever virus type Adames was obtained from the Center for Disease Control (CDC). The test cell line consisted of adult Rhesus monkey kidney cells (LLC-MK2).\nThe two protocols used to determine the cytoprotection properties of the humate materials were as described in Example 20, except that drugs were added at specific times to the test wells containing virus."}, "[6]": {"tested_on": "Punta Toro A hemorrhagic fever virus type Adames", "test": "Punta Toro A virus cytoprotection, neutral red dye uptake", "conditions": "Punta Toro A virus in LLC-MK2 cells", "experimental": "as §1, §2\nThe two protocols used to determine the cytoprotection properties of the humate materials were as described in Example 20."}}, "data": [{"smiles": "NC(=O)c1ncn([C@@H]2O[C@H](CO)[C@@H](O)[C@H]2O)n1", "note": "[Ribavirin]", "values": [{"measurement": "EC50", "setting": "[1]", "value": 5, "unit": "µg/mL"}, {"measurement": "EC50", "setting": "[2]", "value": 0.3, "unit": "µg/mL"}, {"measurement": "NR EC99", "setting": "[3]", "value": "<1", "unit": "micrograms per milliliter"}, {"measurement": "EC50", "setting": "[4]; 0 h, read-out: EC50, CPE method, time of addition 0 hours", "value": 4, "unit": "µg/mL"}, {"measurement": "EC50", "setting": "[4]; 1 h, read-out: EC50, CPE method, time of addition 1 hours", "value": 4, "unit": "µg/mL"}, {"measurement": "EC50", "setting": "[4]; 1 h, read-out: EC50, CPE method, time of addition −1 hours", "value": 10, "unit": "µg/mL"}, {"measurement": "EC50", "setting": "[4]; 2 h, read-out: EC50, CPE method, time of addition 2 hours", "value": 8, "unit": "µg/mL"}, {"measurement": "EC50", "setting": "[4]; 4 h, read-out: EC50, CPE method, time of addition 4 hours", "value": 4, "unit": "µg/mL"}, {"measurement": "EC50", "setting": "[4]; 6 h, read-out: EC50, CPE method, time of addition 6 hours", "value": 10, "unit": "µg/mL"}, {"measurement": "EC50", "setting": "[4]; 8 h, read-out: EC50, CPE method, time of addition 8 hours", "value": 8, "unit": "µg/mL"}, {"measurement": "EC50", "setting": "[4]; 12 h, read-out: EC50, CPE method, time of addition 12 hours", "value": 8, "unit": "µg/mL"}, {"measurement": "EC50", "setting": "[4]; 24 h, read-out: EC50, CPE method, time of addition 24 hours", "value": 2, "unit": "µg/mL"}, {"measurement": "EC50", "setting": "[5]; 0 h, read-out: EC50, NR method, time of addition 0 hours", "value": 3, "unit": "µg/mL"}, {"measurement": "EC50", "setting": "[5]; 1 h, read-out: EC50, NR method, time of addition 1 hours", "value": 5, "unit": "µg/mL"}, {"measurement": "EC50", "setting": "[5]; 1 h, read-out: EC50, NR method, time of addition −1 hours", "value": 6, "unit": "µg/mL"}, {"measurement": "EC50", "setting": "[5]; 2 h, read-out: EC50, NR method, time of addition 2 hours", "value": 5, "unit": "µg/mL"}, {"measurement": "EC50", "setting": "[5]; 4 h, read-out: EC50, NR method, time of addition 4 hours", "value": 9, "unit": "µg/mL"}, {"measurement": "EC50", "setting": "[5]; 6 h, read-out: EC50, NR method, time of addition 6 hours", "value": 8, "unit": "µg/mL"}, {"measurement": "EC50", "setting": "[5]; 8 h, read-out: EC50, NR method, time of addition 8 hours", "value": 10, "unit": "µg/mL"}, {"measurement": "EC50", "setting": "[5]; 12 h, read-out: EC50, NR method, time of addition 12 hours", "value": 12, "unit": "µg/mL"}, {"measurement": "EC50", "setting": "[5]; 24 h, read-out: EC50, NR method, time of addition 24 hours", "value": 35, "unit": "µg/mL"}, {"measurement": "NR EC99", "setting": "[6]", "value": 5, "unit": "micrograms per milliliter"}]}]}
